Results reported in US20180000085A1, “USE OF PICOLINAMIDE COMPOUNDS WITH FUNGICIDAL ACTIVITY” (DOW AGROSCIENCES LLC, priority 2014, published 2018).

How the values were obtained:
Puccinia triticina = experiment: Wheat brown rust (PUCCRT) disease control on wheat seedlings; assay type: in vivo; parameters: key to PUCCRT 3DC, HV activity at 100 ppm (% control rating) / PUCCRT disease control, 3DC / PUCCRT 1DP disease control rating, HV activity / PUCCRT 3DC disease control rating, HV activity / PUCCRT 3DC, LV activity at 125.1 g/H (% Control rating) / PUCCRT 1DP, LV activity at 125.1 g/H (% Control rating) / PUCCRT 3DC disease control rating, LV activity at 125.1 g/H / PUCCRT 1DP disease control rating, LV activity at 125.1 g/H / PUCCRT 3DC disease control rating, HV activity at 100 ppm / PUCCRT 1DP disease control rating, HV activity at 100 ppm / HV activity at 100 ppm PUCCRT 3DC (disease control rating) / LV activity at 125.1 g/H PUCCRT 1DP (disease control rating) / LV activity at 125.1 g/H PUCCRT 3DC (disease control rating): A: > 80; B: ≤ 80; C: Not Tested; D: No Activity Observed in the Reported Assay; settings: high volume application, 100 ppm; for PUCCRT 1DP disease control rating, HV activity at 100 ppm: 1 day protectant; for PUCCRT 3DC disease control rating, HV activity at 100 ppm: 3 day curative
Zymoseptoria tritici = experiment: Leaf blotch of wheat (SEPTTR) disease control on wheat seedlings; assay type: in vivo; parameters: key to SEPTTR 1DP, HV activity at 100 ppm (% control rating) / SEPTTR 3DC, HV activity at 100 ppm (% control rating) / SEPTTR disease control, 1DP / SEPTTR disease control, 3DC / SEPTTR 1DP disease control rating, HV activity / SEPTTR 3DC disease control rating, HV activity / SEPTTR 3DC, LV activity at 125.1 g/H (% Control rating) / SEPTTR 1DP, LV activity at 125.1 g/H (% Control rating) / SEPTTR 1DP disease control rating, LV activity at 125.1 g/H / SEPTTR 3DC disease control rating, LV activity at 125.1 g/H / SEPTTR 3DC disease control rating, HV activity at 100 ppm / SEPTTR 1DP disease control rating, HV activity at 100 ppm / HV activity at 100 ppm SEPTTR 3DC (disease control rating) / HV activity at 100 ppm SEPTTR 1DP (disease control rating) / LV activity at 125.1 g/H SEPTTR 1DP (disease control rating) / LV activity at 125.1 g/H SEPTTR 3DC (disease control rating): A: > 80; B: ≤ 80; C: Not Tested; D: No Activity Observed in the Reported Assay; settings: high volume application, 100 ppm; for SEPTTR 1DP disease control rating, HV activity at 100 ppm: 1 day protectant; for SEPTTR 3DC disease control rating, HV activity at 100 ppm: 3 day curative

`COc1ccnc(C(=O)N[C@@H](C)C(=O)O[C@@H](C)[C@H](OCC2CC2)C2CCCCC2)c1O` [Cmpd 816] was tested, and the “PUCCRT 1DP disease control rating, HV activity at 100 ppm” value (“PUCCRT 1DP disease control rating” below) (Puccinia triticina) was “A (> 80)”, the “PUCCRT 3DC disease control rating, HV activity at 100 ppm” value (shortened to “PUCCRT 3DC disease control rating”) (Puccinia triticina) was “B (≤ 80)” and the “SEPTTR 1DP disease control rating, HV activity at 100 ppm” value (“SEPTTR 1DP disease control rating” for short) (Zymoseptoria tritici) was “B (≤ 80)”. For the same compound, the “SEPTTR 3DC disease control rating, HV activity at 100 ppm” value (“SEPTTR 3DC disease control rating” below) (Zymoseptoria tritici) was “B (≤ 80)”.

With `COc1ccnc(C(=O)NC(C)C(=O)OC(C)C(Oc2ccc(Cl)cc2Cl)c2ccccc2)c1O` (stereo not drawn) [Cmpd 817] the “PUCCRT 1DP disease control rating” value (Puccinia triticina) was “A (> 80)”, the “PUCCRT 3DC disease control rating” value (Puccinia triticina) was “A (> 80)” and the “SEPTTR 1DP disease control rating” value (Zymoseptoria tritici) was “A (> 80)”. The “SEPTTR 3DC disease control rating” value (Zymoseptoria tritici) was “B (≤ 80)”.

For `COc1ccnc(C(=O)NC(C)C(=O)OC(C)C(Oc2ccccc2)c2ccccc2)c1O` (stereo not drawn) [Cmpd 818], the “PUCCRT 1DP disease control rating” value (Puccinia triticina) was “A (> 80)”, the “PUCCRT 3DC disease control rating” value (Puccinia triticina) was “D” and the “SEPTTR 1DP disease control rating” value (Zymoseptoria tritici) was “A (> 80)”. For the same compound, the “SEPTTR 3DC disease control rating” value (Zymoseptoria tritici) was “A (> 80)”.

With `COc1ccnc(C(=O)NC(C)C(=O)OC(C)C(OCC(C)C)c2ccccc2)c1O` (stereo not drawn) [Cmpd 819] the “PUCCRT 1DP disease control rating” value (Puccinia triticina) was “D”, the “PUCCRT 3DC disease control rating” value (Puccinia triticina) was “B (≤ 80)” and the “SEPTTR 1DP disease control rating” value (Zymoseptoria tritici) was “B (≤ 80)”. For the same compound, the “SEPTTR 3DC disease control rating” value (Zymoseptoria tritici) was “D”.

In the case of `COc1ccnc(C(=O)NC(C)C(=O)OC(C)C(OCC(C)C)c2ccccc2)c1O` (stereo not drawn) [Cmpd 820], the “PUCCRT 1DP disease control rating” value (Puccinia triticina) is reported as “A (> 80)”, the “PUCCRT 3DC disease control rating” value (Puccinia triticina) is reported as “A (> 80)” and the “SEPTTR 1DP disease control rating” value (Zymoseptoria tritici) is reported as “A (> 80)”. The “SEPTTR 3DC disease control rating” value (Zymoseptoria tritici) was “A (> 80)”.

In the case of `CCCOC(c1ccccc1)C(C)OC(=O)C(C)NC(=O)c1nccc(OC)c1O` (stereo not drawn) [Cmpd 821], the “PUCCRT 1DP disease control rating” value (Puccinia triticina) is reported as “A (> 80)”, the “PUCCRT 3DC disease control rating” value (Puccinia triticina) is reported as “A (> 80)” and the “SEPTTR 1DP disease control rating” value (Zymoseptoria tritici) is reported as “B (≤ 80)”. For the same compound, the “SEPTTR 3DC disease control rating” value (Zymoseptoria tritici) was “B (≤ 80)”.

With `COc1ccnc(C(=O)NC(C)C(=O)OC(C)C(OC)c2ccccc2)c1O` (stereo not drawn) [Cmpd 823] the “PUCCRT 1DP disease control rating” value (Puccinia triticina) was “B (≤ 80)”, the “PUCCRT 3DC disease control rating” value (Puccinia triticina) was “A (> 80)” and the “SEPTTR 1DP disease control rating” value (Zymoseptoria tritici) was “D”. For the same compound, the “SEPTTR 3DC disease control rating” value (Zymoseptoria tritici) was “B (≤ 80)”.

With `COc1ccnc(C(=O)NC(C)C(=O)OC(C)C(OCC2CC2)c2ccccc2)c1O` (stereo not drawn) [Cmpd 825] the “PUCCRT 1DP disease control rating” value (Puccinia triticina) was “A (> 80)”, the “PUCCRT 3DC disease control rating” value (Puccinia triticina) was “A (> 80)” and the “SEPTTR 1DP disease control rating” value (Zymoseptoria tritici) was “B (≤ 80)”. The “SEPTTR 3DC disease control rating” value (Zymoseptoria tritici) was “B (≤ 80)”.

`COc1ccnc(C(=O)NC(C)C(=O)OC(C)C(OCC2CC2)C23CC4CC(CC(C4)C2)C3)c1O` (stereo not drawn) [Cmpd 827] was tested, and the “PUCCRT 1DP disease control rating” value (Puccinia triticina) was “A (> 80)”, the “PUCCRT 3DC disease control rating” value (Puccinia triticina) was “D” and the “SEPTTR 1DP disease control rating” value (Zymoseptoria tritici) was “B (≤ 80)”. For the same compound, the “SEPTTR 3DC disease control rating” value (Zymoseptoria tritici) was “D”.

In the case of `COc1ccnc(C(=O)NC(C)C(=O)OC(C)C(OC)C23CC4CC(CC(C4)C2)C3)c1O` (stereo not drawn) [Cmpd 829], the “PUCCRT 1DP disease control rating” value (Puccinia triticina) is reported as “B (≤ 80)”, the “PUCCRT 3DC disease control rating” value (Puccinia triticina) is reported as “D” and the “SEPTTR 1DP disease control rating” value (Zymoseptoria tritici) is reported as “D”. The “SEPTTR 3DC disease control rating” value (Zymoseptoria tritici) was “D”.

For `COc1ccnc(C(=O)NC(C)C(=O)OC(C)(C)C(Oc2ccccc2)C(C)C)c1O` (stereo not drawn) [Cmpd 831], the “PUCCRT 1DP disease control rating” value (Puccinia triticina) was “B (≤ 80)”, the “PUCCRT 3DC disease control rating” value (Puccinia triticina) was “D” and the “SEPTTR 1DP disease control rating” value (Zymoseptoria tritici) was “D”. For the same compound, the “SEPTTR 3DC disease control rating” value (Zymoseptoria tritici) was “D”.

In the case of `COc1ccnc(C(=O)NC(C)C(=O)OC(C)C(Oc2ccccc2)c2ccc(-c3ccccc3)cc2)c1O` (stereo not drawn) [Cmpd 833], the “PUCCRT 1DP disease control rating” value (Puccinia triticina) is reported as “A (> 80)”, the “PUCCRT 3DC disease control rating” value (Puccinia triticina) is reported as “B (≤ 80)” and the “SEPTTR 1DP disease control rating” value (Zymoseptoria tritici) is reported as “A (> 80)”. The “SEPTTR 3DC disease control rating” value (Zymoseptoria tritici) was “B (≤ 80)”.

For `COc1ccnc(C(=O)NC(C)C(=O)OC(C)(C)[C@H](Oc2ccccc2)C(C)C)c1O` (stereo partly drawn) [Cmpd 835, (R)-2,4-dimethyl-3-phenoxypentan-2-yl 2-(3-hydroxy-4-methoxypicolinamido)propanoate], the “PUCCRT 1DP disease control rating” value (Puccinia triticina) was “A (> 80)”, the “PUCCRT 3DC disease control rating” value (Puccinia triticina) was “A (> 80)” and the “SEPTTR 1DP disease control rating” value (Zymoseptoria tritici) was “D”. For the same compound, the “SEPTTR 3DC disease control rating” value (Zymoseptoria tritici) was “B (≤ 80)”.

For `COc1ccnc(C(=O)NC(C)C(=O)OC(C)C(Oc2ccccc2)C2CCCCC2)c1O` (stereo not drawn) [Cmpd 836], the “PUCCRT 1DP disease control rating” value (Puccinia triticina) was “A (> 80)”, the “PUCCRT 3DC disease control rating” value (Puccinia triticina) was “A (> 80)” and the “SEPTTR 1DP disease control rating” value (Zymoseptoria tritici) was “A (> 80)”. The “SEPTTR 3DC disease control rating” value (Zymoseptoria tritici) was “A (> 80)”.

`COc1ccnc(C(=O)NC(C)C(=O)OC(C)C(Oc2ccc(F)cc2)c2ccccc2)c1O` (stereo not drawn) [Cmpd 837] was tested, and the “PUCCRT 1DP disease control rating” value (Puccinia triticina) was “A (> 80)”, the “PUCCRT 3DC disease control rating” value (Puccinia triticina) was “A (> 80)” and the “SEPTTR 1DP disease control rating” value (Zymoseptoria tritici) was “A (> 80)”. For the same compound, the “SEPTTR 3DC disease control rating” value (Zymoseptoria tritici) was “A (> 80)”.

In the case of `COc1ccnc(C(=O)N[C@@H](C)C(=O)O[C@@H](C)[C@H](Oc2cccc(F)c2)C2CCCC2)c1O` [Cmpd 839], the “PUCCRT 1DP disease control rating” value (Puccinia triticina) is reported as “A (> 80)”, the “PUCCRT 3DC disease control rating” value (Puccinia triticina) is reported as “A (> 80)” and the “SEPTTR 1DP disease control rating” value (Zymoseptoria tritici) is reported as “B (≤ 80)”. The “SEPTTR 3DC disease control rating” value (Zymoseptoria tritici) was “B (≤ 80)”.

In the case of `COc1ccnc(C(=O)N[C@@H](C)C(=O)O[C@@H](C)[C@H](Oc2ccc(F)cc2)C2CCCC2)c1O` [Cmpd 840], the “PUCCRT 1DP disease control rating” value (Puccinia triticina) is reported as “A (> 80)”, the “PUCCRT 3DC disease control rating” value (Puccinia triticina) is reported as “A (> 80)” and the “SEPTTR 1DP disease control rating” value (Zymoseptoria tritici) is reported as “B (≤ 80)”. The “SEPTTR 3DC disease control rating” value (Zymoseptoria tritici) was “A (> 80)”.

`COc1ccnc(C(=O)N[C@@H](C)C(=O)O[C@@H](C)[C@H](Oc2cccc(Cl)c2)C2CCCC2)c1O` [Cmpd 841, (S)-(1R,2S)-1-(3-chlorophenoxy)-1-cyclopentylpropan-2-yl-2-(3-hydroxy-4-methoxypicolinamido)propanoate] was tested, and the “PUCCRT 1DP disease control rating” value (Puccinia triticina) was “A (> 80)”, the “PUCCRT 3DC disease control rating” value (Puccinia triticina) was “A (> 80)” and the “SEPTTR 1DP disease control rating” value (Zymoseptoria tritici) was “A (> 80)”. For the same compound, the “SEPTTR 3DC disease control rating” value (Zymoseptoria tritici) was “A (> 80)”.

For `COc1ccnc(C(=O)N[C@@H](C)C(=O)O[C@@H](C)[C@H](Oc2ccc(Cl)cc2)C2CCCC2)c1O` [Cmpd 842], the “PUCCRT 1DP disease control rating” value (Puccinia triticina) was “A (> 80)”, the “PUCCRT 3DC disease control rating” value (Puccinia triticina) was “A (> 80)” and the “SEPTTR 1DP disease control rating” value (Zymoseptoria tritici) was “A (> 80)”. The “SEPTTR 3DC disease control rating” value (Zymoseptoria tritici) was “B (≤ 80)”.

`COc1ccnc(C(=O)N[C@@H](C)C(=O)O[C@@H](C)[C@H](Oc2ccc(C)cc2Cl)C2CCCC2)c1O` [Cmpd 843, (S)-(1R,2S)-1-(2-chloro-4-methylphenoxy)-1-cyclopentylpropan-2-yl-2-(3-hydroxy-4-methoxypicolinamido)propanoate] was tested, and the “PUCCRT 1DP disease control rating” value (Puccinia triticina) was “D”, the “PUCCRT 3DC disease control rating” value (Puccinia triticina) was “D” and the “SEPTTR 1DP disease control rating” value (Zymoseptoria tritici) was “D”. For the same compound, the “SEPTTR 3DC disease control rating” value (Zymoseptoria tritici) was “B (≤ 80)”.

For `COc1ccnc(C(=O)N[C@@H](C)C(=O)O[C@@H](C)[C@H](OCC(C)C)C2CCCC2)c1O` [Cmpd 844], the “PUCCRT 1DP disease control rating” value (Puccinia triticina) was “A (> 80)”, the “PUCCRT 3DC disease control rating” value (Puccinia triticina) was “A (> 80)” and the “SEPTTR 1DP disease control rating” value (Zymoseptoria tritici) was “B (≤ 80)”. The “SEPTTR 3DC disease control rating” value (Zymoseptoria tritici) was “A (> 80)”.
